Reference: US8889680B2, “Treatment or prevention of fungal infections with PDK1 inhibitors” (priority 2010, dated 2014)
≈ marks a conversion by molar mass, not a printed value. Like-named read-outs stand apart in the source and are kept apart here.

Experiments:
[1] = system: C. albicans clinical reference strain SC5314; test: Adenylate kinase (AK) release assay of yeast cell lysis; format: cell-based, Candida albicans; set-up: dose or concentration left out as unconfirmed; settings: extracellular AK activity relative to DMSO-treated cells
Method: AK assays were performed according to a recently published protocol (Didone et al., Nat. Protocol. 5:1107-14 (2010)) using the 96-well plate version using the Toxi-Light Assay kit (Lonza; Basel, Switzerland). Luminescence was measured using a SpectraMax plate reader (Molecular Devices; Sunnyvale, Calif.). […] To identify PKIs that disrupt yeast cell wall integrity, a four-part screening strategy as outlined in FIG. 1A was designed. The primary screen in the approach detects molecules that cause yeast cells to lyse, a characteristic phenotype of yeast cell wall damage, by use of an assay that detects the release of adenylate kinase (AK) to the growth medium as a reporter of yeast cell lysis. […] Last, to select PKIs specific for the CWI signaling pathway, the set of hits were tested for their ability to block the activation of a transcriptional reporter of the CWI-signaling pathway. To rapidly survey a sample of well-characterized PKIs, the commercially available InhibitorSelect collection, a library of 80 PKIs with diverse mechanistic and structural characteristics, was utilized. C. albicans clinical reference strain SC5314 was screened against the InhibitorSelect library for molecules that caused a release of AK into the growth medium.

C. albicans [2] = test: Antifungal susceptibility (microdilution MIC), C. albicans; format: cell-based, Candida albicans
Method: (§1) The antifungal activity of protein kinase inhibitors was determined using the Clinical and Laboratory Science Institute microdilution protocol M-27A2. Biofilm antifungal activity was determined using the protocol of Pierce et al. and is reported as MIC50S (Pierce et al., Nat. Protoc. 3:1494-1500 (2008)). Disk diffusion assays were performed as described previously (Roelants et al., Microbiology 150:3289-304 (2004)).
To identify PKIs that disrupt yeast cell wall integrity, a four-part screening strategy as outlined in FIG. 1A was designed. The primary screen in the approach detects molecules that cause yeast cells to lyse, a characteristic phenotype of yeast cell wall damage, by use of an assay that detects the release of adenylate kinase (AK) to the growth medium as a reporter of yeast cell lysis. Previously it was shown that the AK assay in HTS format can detect as few as 500 lysed yeast cells in a sample of 10^5 cells (Didone et al., Nat. Protocol. 5:1107-14 (2010)). PKIs that cause yeast cells lysis (hits) were then re-confirmed by AK dose-response assays and tested for in vitro antifungal activity against the human fungal pathogen C. albicans using standard microdilution susceptibility testing. Last, to select PKIs specific for the CWI signaling pathway, the set of hits were tested for their ability to block the activation of a transcriptional reporter of the CWI-signaling pathway. […]

C. neoformans = test: Antifungal susceptibility (microdilution MIC), C. neoformans; format: cell-based, Cryptococcus neoformans
Method: as §1
(FIG. 3A). […] Since the echinocandin class of cell wall-targeted 1,3-β-glucan synthase inhibitors is not active against C. neoformans, this represents one of the few cell wall-targeted molecules with activity against this important pathogen.

C. albicans [3] = test: Checkerboard interaction assay (FIC); format: cell-based, Candida albicans
Method: This assay allows one to compare the activity of a molecule alone and in combination with another molecule by generating a fractional inhibitory concentration (FIC). FIC for two drugs (A & B) is calculated as follows: […]. FIC values less than 0.5 are considered synergistic; between 0.5 and 1 are additive; between 1-2 are indifferent; and above 2 are antagonistic. […] Therefore, KP-372-1 is not synergistic with either agent.

C. albicans biofilms = test: Biofilm XTT reduction assay of metabolic activity; format: cell-based, Candida albicans; settings: at higher concentrations than those active against planktonic cells
Method: Filled circles indicate growth and clear circles indicate no detectable turbidity. The lowest concentration of drug resulting in no growth is defined as the MIC. […] Metabolic activity was determined using the XTT assay.
SC5314 biofilms were generated in microtiter plates for 48 hours and treated with OSU-03012 for 24 hours before being subject to an XTT reduction assay of metabolic activity.
as §1

[4] = system: CWI pathway reporter Rlm1-lacZ; test: β-Galactosidase CWI pathway reporter assay (Rlm1-lacZ); format: cell-based; settings: sub-inhibitory concentrations (1/2 MIC), S. cerevisiae
Method: Bars indicate mean fold change in Miller units of β-galactosidase activity relative to logarithmic phase cells without calcofluor or PKI. Error bars indicate standard deviation of three independent trials performed in triplicate. […] The percentage of cells with PI uptake was determined by fluorescence.
Logarithmic phase S. cerevisiae (BY4741) cells harboring the pRLM1-lacZ plasmid were transferred to a 96-well plate, and treated with Calcofluor white ([…])+/−protein kinase inhibitor at sub-inhibitory concentrations (1/2MIC). The cells were incubated at room temperature for 5 hours and processed for β-galactosidase activity using the ThermoScientific Yeast β-galactosidase kit according to the manufacturer's instructions (Pierce; Rockford, Ill.). β-galactosidase activity was determined by measuring OD420 using a SpectraMax Plate reader (Molecular Devices) and expressed as fold change in Miller units (nmole/mg/min) relative to untreated cells. Each experiment was performed in duplicate with three independent isolates.
The novel, antifungal PKIs identified in the primary screen were evaluated for their ability to block CWI pathway signaling using a reporter construct that contains two copies of the consensus binding site for the CWI-pathway-regulated transcription factor Rlm1 fused to the β-galactosidase gene (Jung et al., Mol. Microbiol. 46:781-9 (2002)). […]

human cells = settings: cited from earlier work
[5] = system: C. albicans strain SC5314; test: Mouse model of candidiasis, kidney fungal burden; format: in vivo; settings: BALB/c mice, 100 mg/kg per day by oral gavage in peanut oil, 2 days, C. albicans SC5314 i.v.
Method: (§2) YPD cultures were incubated at 37° C. for 30 hours in the presence of the indicated drugs and combinations. Aliquots were diluted and plated on YPD at 30° C. to determine inoculum. […] BALB/c mice (n=5 per group) were treated with 100 mg/kg OSU-03012 per day by oral gavage after inoculation with C. albicans SC5314 by tail vein injection for 2 days and kidney fungal burden was determined.
On the day of inoculation (DO), BALB/c mice were restrained in a mechanical restrainer and inoculated with C. albicans strain SC5314 suspended in saline (1×10^5 cfu/animal) via lateral tail vein injection. OSU-03012 (100 mg/kg) in peanut oil was given by gavage to half the animals (n=5) and peanut oil alone was given to the other half of animals on the day of inoculation and on the following day. ON D2, the animals were sacrificed and the kidneys harvested. The kidneys were homogenized and dilutions were plated on yeast peptone dextrose plates containing gentamicin and vancomycin. The plates were incubated at 30° C. for one day and colony forming units per kidney were determined by standard methods. Differences between treatment and no treatment groups were analyzed by Student's t test with a statistically significant effect defined as P<0.05.

C. neoformans H99 = test: Time-kill evaluation in combination with fluconazole; format: cell-based, Cryptococcus neoformans; settings: C. neoformans H99, YPD, 37° C., 30 hours
Method: as §2
To determine if the combination of OSU-03012 and fluconazole was fungicidal, overnight cultures of C. neoformas strain H99 were diluted to 1.5×10^4 cells/ml in yeast peptone dextrose containing either: dimethyl sulfoxide (DMSO) (1% final concentration); fluconazole (2 μg/ml/1% DMSO); OSU-03012 (2 μg/ml/1% DMSO); or OSU-03012 and fluconazole (2 μg/ml each/1% DMSO). The cultures were incubated at 37° C. for 30 hours. Aliquots were removed at 0, 3, 6, 24, and 30 hours; diluted and plated on yeast peptone dextrose plates. The plates were incubated at 30° C. for 48 hours and colony forming units per ml determined by standard methods. It was determined that the combination of OSU-03012 and fluconazole was fungicidal (FIG. 9A).

[6] = C. albicans growth assay, Table 1
[7] = Candida albicans, C. albicans growth assay, Table 1, read-out: MIC

CC[n+]1c(/C=C/N(C)c2ccccc2)n(-c2ccccc2)c2ccc(-c3nc4ccccc4s3)cc21.[I-] [Akt IV]
Fold increase in AK release [1]: 12 Fold
MIC (C. albicans [2]; [6]): 9 µg/mL

O=C(Nc1cccc(Nc2ncc(Br)c(NCCc3cnc[nH]3)n2)c1)N1CCCC1 [BX-912]
MIC (growth inhibition) (C. neoformans): ≥ 64 µg/mL
MIC (growth inhibition) (C. albicans [2]; C. albicans, planktonic): ≥ 64 µg/mL

CN[C@@H]1C[C@H]2O[C@@](C)([C@@H]1OC)n1c3ccccc3c3c4c(c5c6ccccc6n2c5c31)C(=O)N[C@@H]4O [UCN-01]
antifungal activity (in words) (C. neoformans): good antifungal activity
FIC (fractional inhibitory concentration) (C. albicans [3]; combination with caspofungin): 1.0
FIC (fractional inhibitory concentration) (C. albicans [3]; combination with fluconazole): 0.3
activity against C. albicans biofilms (in words) (C. albicans biofilms): showed activity
antifungal activity (in words) (C. albicans [2]; C. albicans): good antifungal activity

Herbymicin
Fold increase in AK release [1]: 127 Fold
MIC (C. albicans [2]; [6]): 40 µg/mL

COc1ccc2c(c[n+](C)c3c4cc5c(cc4ccc23)OCO5)c1OC [Chelerythine]
Fold increase in AK release [1]: 5 Fold
MIC (C. albicans [2]; [6]): 125 µg/mL

CN[C@@H]1C[C@H]2O[C@@](C)([C@@H]1OC)n1c3ccccc3c3c4c(c5c6ccccc6n2c5c31)C(=O)NC4 [Staurosporine]
Fold increase in AK release [1]: 48 Fold
MIC (C. albicans [2]; [7]): 0.5 µg/mL (≈ 1.07 µM)

NCCNc1ncc(C(N)=O)c(Nc2cccc(C(F)(F)F)c2)n1 [Sykll]
Fold increase in AK release [1]: 14 Fold
Rlm1-lacZ reporter activity induced by Calcofluor white [4]: completely abolished reporter activity
MIC (C. albicans [2]; [6]): 9 µg/mL (≈ 26.4 µM)

CO[C@H]1C[C@@H]2CC[C@@H](C)[C@@](O)(O2)C(=O)C(=O)N2CCCC[C@H]2C(=O)O[C@H]([C@H](C)C[C@@H]2CC[C@@H](O)[C@H](OC)C2)CC(=O)[C@H](C)/C=C(\C)[C@@H](O)[C@@H](OC)C(=O)[C@H](C)C[C@H](C)/C=C/C=C/C=C/1C [Rapamycin]
Fold increase in AK release [1]: 17 Fold
MIC (C. albicans [2]; [7]): 100 µg/mL (≈ 109 µM)

NCC(=O)Nc1ccc(-n2nc(C(F)(F)F)cc2-c2ccc3c(ccc4ccccc43)c2)cc1 [OSU-03012]
antifungal activity (in words) (C. neoformans): good antifungal activity
MIC (C. neoformans; Cryptococcus neoformans, FIG. 7 legend): 4 µg/mL (≈ 8.69 µM)
concentration tolerated in human cells (human cells): 8000 ng/mL
in vivo activity (kidney fungal burden) [5]: in vivo activity against C. albicans infection
activity against C. albicans biofilms (in words) (C. albicans biofilms): showed activity
interaction with fluconazole (C. neoformans H99): synergistic
time-kill result of the combination (C. neoformans H99; OSU-03012 and fluconazole 2 μg/ml each): fungicidal
antifungal activity (in words) (C. albicans [2]; C. albicans): good antifungal activity
MIC (C. albicans [2]; Candida albicans, C. albicans, FIG. 7 legend, read-out: MIC): 3 µg/mL (≈ 6.52 µM)
